Results on one compound are retold here after ChEMBL document CHEMBL5154928, “Structure-Aided Design, Synthesis, and Biological Evaluation of Potent and Selective Non-Nucleoside Inhibitors Targeting Protein Arginine Methyltransferase 5” (J Med Chem, 2022).

Data set [1] is described as follows: Metabolic stability in mouse liver microsomes assessed as clearance measured up to 60 mins in presence of NADPH by LC-MS/MS analysis. Format: ADME, Microsome. Conditions: 1 h. On the technique in general: Liver microsomes are a subcellular fraction often used to study metabolism.
A short description of data set [2]: Clearance in Sprague-Dawley rat at 3 mg/kg, iv measured for 0.25 to 24 hrs by LC-MS/MS analysis. Format: ADME, organism-based. Conditions: in vivo, time 0.25-24 hrs.
Data set [3] is described as follows: Metabolic stability in rat liver microsomes assessed as clearance measured up to 60 mins in presence of NADPH by LC-MS/MS analysis. Format: ADME, Microsome. Conditions: 1 h.
Data set [4] deals with T1, Protein arginine N-methyltransferase 5 (Homo sapiens, UniProt O14744). The data set can be described thus: Displacement of [3H]-SAM from PRMT5 (unknown origin) using peptide substrate preincubated for 15 mins followed by substrate addition for 60 mins by radioactive biochemical assay. (In general: Loss of bound radioactivity is the signal in a displacement assay; it reports binding, not function.)
T1 sequence (O14744 whole entry): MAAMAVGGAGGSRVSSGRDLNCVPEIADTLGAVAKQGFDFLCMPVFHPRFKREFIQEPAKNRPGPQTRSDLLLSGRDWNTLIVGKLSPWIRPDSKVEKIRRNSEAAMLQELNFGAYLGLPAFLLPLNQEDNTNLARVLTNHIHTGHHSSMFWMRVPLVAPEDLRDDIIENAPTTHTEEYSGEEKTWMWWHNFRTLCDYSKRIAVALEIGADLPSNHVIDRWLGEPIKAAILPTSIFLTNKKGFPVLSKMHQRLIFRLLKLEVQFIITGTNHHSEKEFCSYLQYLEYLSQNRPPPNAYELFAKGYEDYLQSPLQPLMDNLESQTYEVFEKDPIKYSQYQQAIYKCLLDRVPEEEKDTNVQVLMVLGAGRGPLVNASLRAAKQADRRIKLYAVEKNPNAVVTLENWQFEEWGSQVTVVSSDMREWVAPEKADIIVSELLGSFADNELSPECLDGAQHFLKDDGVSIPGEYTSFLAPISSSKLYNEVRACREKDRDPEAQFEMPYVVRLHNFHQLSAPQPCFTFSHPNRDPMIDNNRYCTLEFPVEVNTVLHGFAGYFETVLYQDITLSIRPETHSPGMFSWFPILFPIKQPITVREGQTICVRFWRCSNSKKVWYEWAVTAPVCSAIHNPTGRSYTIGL

Data set [5] can be described thus: Oral bioavailability in Sprague-Dawley rat at 10 mg/kg, measured for 0.25 to 24 hrs by LC-MS/MS analysis. Format: ADME, organism-based. Conditions: in vivo, time 0.25-24 hrs.
Data set [6] can be described thus: Toxicity in BALB/c mouse xenografted with human A375 cells assessed as change in body weight at 75 mg/kg, po qd for 19 days and measured every 3 days. Format: organism-based, A-375. As to conditions: in vivo, 456 h, time 19 day.
The subject of data set [7] is A-375. Put plainly: Antitumor activity against human A-375 cells xenografted in BALB/c mouse assessed as tumor growth inhibition at 75 mg/kg, po qd for 19 days and measured every 3 days. Format: functional. As to conditions: A-375, 456 h, time 19 day, read-out: TGI. Background: In xenograft studies the graft and the host belong to different species.
Data set [8] is described as follows: Metabolic stability in human liver microsomes assessed as half life incubated for 10 mins measured up to 60 mins in presence of NADPH by LC-MS/MS analysis. Format: ADME, Microsome.
Data set [9] can be described thus: Plasma protein binding in mouse by LC-MS/MS analysis. As to conditions: read-out: PPB (converted). Format: ADME, cell-free.
Data set [10] has as its target Histone-lysine N-methyltransferase 2B (Homo sapiens, UniProt Q9UMN6). Put plainly: Inhibition of MLL4 (unknown origin) using peptide substrate preincubated for 10 mins followed by substrate addition for 4 hrs by HTRF assay.
The target of data set [11] is Protein arginine N-methyltransferase 1 (Homo sapiens, UniProt Q99873). Put plainly: Inhibition of PRMT1 (unknown origin) using histone H4 (1 to 21 residues) peptide as substrate incubated for 210 mins in presence of SAM by AlphaLISA assay.
Sequence of Protein arginine N-methyltransferase 1 (Q99873 whole entry, the tested form may be a part): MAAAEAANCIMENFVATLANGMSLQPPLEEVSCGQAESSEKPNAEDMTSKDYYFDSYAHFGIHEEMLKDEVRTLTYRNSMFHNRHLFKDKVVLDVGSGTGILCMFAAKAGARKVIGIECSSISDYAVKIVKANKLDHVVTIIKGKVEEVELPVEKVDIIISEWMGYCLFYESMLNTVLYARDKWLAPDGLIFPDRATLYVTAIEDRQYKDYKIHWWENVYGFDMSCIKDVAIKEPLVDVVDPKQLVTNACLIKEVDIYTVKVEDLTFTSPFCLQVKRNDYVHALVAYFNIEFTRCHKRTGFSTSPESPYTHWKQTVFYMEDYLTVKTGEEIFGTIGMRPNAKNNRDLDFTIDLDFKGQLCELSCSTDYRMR
Data set [12] has as its target T1, Protein arginine N-methyltransferase 5. Put plainly: Inhibition of PRMT5 (unknown origin) using histone H4 (1 to 21 residues) peptide/SAM as substrate incubated for 210 mins in presence of SAM by AlphaLISA assay.
The test system of data set [13] is A-375. The data set can be described thus: Induction of apoptosis in human A-375 cells assessed as total apoptotic cells at 0.5 uM incubated for 48 hrs by Annexin-V FITC/PI staining based flow cytometry analysis relative to control. Format: functional.
The target in data set [14] is Histone-lysine N-methyltransferase 2A (Homo sapiens, UniProt Q03164). Put plainly: Inhibition of MLL1 (unknown origin) using peptide substrate preincubated for 10 mins followed by substrate addition for 4 hrs by HTRF assay.

Structures are written as SMILES.

Sequence of Histone-lysine N-methyltransferase 2B (Q9UMN6 whole entry, the tested form may be a part): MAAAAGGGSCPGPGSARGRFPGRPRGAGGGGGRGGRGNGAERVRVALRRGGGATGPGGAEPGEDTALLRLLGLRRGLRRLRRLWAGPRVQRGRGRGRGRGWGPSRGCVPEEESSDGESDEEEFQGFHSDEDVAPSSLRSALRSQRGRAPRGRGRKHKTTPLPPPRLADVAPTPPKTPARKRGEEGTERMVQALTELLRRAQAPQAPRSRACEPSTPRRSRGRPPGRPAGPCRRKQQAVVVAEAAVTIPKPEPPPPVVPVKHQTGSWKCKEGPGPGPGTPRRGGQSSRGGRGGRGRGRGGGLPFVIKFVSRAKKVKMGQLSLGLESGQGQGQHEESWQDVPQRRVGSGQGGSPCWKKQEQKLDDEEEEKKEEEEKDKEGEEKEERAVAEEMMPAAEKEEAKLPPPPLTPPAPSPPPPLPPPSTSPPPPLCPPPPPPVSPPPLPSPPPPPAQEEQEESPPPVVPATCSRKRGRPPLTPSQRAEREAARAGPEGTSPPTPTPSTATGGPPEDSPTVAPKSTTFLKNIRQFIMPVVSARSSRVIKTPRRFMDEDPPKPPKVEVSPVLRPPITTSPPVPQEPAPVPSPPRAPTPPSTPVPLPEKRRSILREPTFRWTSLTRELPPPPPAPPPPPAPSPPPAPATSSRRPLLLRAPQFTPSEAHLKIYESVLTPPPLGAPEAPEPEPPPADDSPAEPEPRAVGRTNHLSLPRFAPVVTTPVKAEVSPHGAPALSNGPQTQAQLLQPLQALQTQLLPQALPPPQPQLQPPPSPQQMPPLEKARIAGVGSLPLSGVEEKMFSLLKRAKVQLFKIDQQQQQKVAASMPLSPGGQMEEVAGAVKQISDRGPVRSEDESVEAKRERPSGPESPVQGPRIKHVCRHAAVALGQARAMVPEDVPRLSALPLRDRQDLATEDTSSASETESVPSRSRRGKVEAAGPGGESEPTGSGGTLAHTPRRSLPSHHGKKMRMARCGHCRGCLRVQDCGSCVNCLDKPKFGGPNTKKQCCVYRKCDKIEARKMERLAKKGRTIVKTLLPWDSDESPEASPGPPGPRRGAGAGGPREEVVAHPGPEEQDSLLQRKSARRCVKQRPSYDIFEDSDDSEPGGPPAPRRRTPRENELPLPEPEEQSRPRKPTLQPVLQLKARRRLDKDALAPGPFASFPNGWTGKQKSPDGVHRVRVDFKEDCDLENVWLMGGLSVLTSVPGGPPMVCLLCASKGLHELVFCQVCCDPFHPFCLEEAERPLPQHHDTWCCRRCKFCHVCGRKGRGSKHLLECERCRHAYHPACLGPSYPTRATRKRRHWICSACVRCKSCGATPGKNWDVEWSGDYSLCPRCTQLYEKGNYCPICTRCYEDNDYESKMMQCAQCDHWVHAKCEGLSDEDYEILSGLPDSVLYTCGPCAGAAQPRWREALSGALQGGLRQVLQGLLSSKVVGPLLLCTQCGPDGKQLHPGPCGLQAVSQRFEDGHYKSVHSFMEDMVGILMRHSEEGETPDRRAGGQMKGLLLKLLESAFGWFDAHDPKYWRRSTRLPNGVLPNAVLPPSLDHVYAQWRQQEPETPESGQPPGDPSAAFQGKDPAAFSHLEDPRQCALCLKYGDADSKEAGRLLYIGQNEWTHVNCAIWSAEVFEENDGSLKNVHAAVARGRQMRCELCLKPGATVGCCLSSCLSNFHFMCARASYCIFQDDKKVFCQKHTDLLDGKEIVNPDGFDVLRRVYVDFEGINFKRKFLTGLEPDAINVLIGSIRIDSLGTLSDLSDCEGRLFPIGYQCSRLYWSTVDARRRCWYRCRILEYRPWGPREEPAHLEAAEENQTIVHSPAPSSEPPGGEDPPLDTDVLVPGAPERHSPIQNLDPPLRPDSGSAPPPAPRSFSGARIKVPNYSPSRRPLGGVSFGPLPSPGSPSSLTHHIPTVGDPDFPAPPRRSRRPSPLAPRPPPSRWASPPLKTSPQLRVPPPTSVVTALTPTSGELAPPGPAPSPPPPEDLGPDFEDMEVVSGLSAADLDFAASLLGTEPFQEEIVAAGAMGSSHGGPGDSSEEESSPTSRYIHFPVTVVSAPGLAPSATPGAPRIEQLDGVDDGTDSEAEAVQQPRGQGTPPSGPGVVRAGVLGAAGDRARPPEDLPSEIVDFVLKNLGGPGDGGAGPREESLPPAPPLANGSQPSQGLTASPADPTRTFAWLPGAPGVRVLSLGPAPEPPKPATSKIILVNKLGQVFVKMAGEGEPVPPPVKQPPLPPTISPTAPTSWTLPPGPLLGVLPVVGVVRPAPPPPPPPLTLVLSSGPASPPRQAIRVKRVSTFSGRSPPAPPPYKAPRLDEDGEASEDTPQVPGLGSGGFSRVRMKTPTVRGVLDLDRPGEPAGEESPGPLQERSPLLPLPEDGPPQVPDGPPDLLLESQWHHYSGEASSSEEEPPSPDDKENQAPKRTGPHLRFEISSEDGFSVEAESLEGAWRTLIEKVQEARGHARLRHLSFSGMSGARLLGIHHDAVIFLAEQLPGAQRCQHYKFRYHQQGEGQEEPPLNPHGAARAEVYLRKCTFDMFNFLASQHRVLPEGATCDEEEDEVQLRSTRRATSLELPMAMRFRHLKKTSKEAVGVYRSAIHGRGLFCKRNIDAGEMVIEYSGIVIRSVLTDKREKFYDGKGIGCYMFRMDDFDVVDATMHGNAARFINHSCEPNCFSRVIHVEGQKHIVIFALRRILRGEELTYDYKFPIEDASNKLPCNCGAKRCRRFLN

Consider `C[C@H](Oc1ccc(-c2cc3c(C4=CCNCC4)ncnc3[nH]2)cc1)c1ccccc1`, for which the values for the CLH in data set [1] and in [3] were 30.7 mL/min/g and 227 mL/min/g, respectively. The compound also registered a clearance in data set [2] of 310 mL/min/kg. In addition, the IC50 in data set [4] was 23.9 nM; in data set [10], more than 20 µM; in [11], 3.25 µM; in data set [12] it was 47 nM; in data set [14], more than 20 µM. This compound had a bioavailability in [5] of 7.25%. Besides, the Activity result in data set [6] is listed as “Non-Toxic”; in [13], 5.58%. Further, the inhibition in vivo at 75 mg/kg in [7] was determined as 73%. Further, the half-life in data set [8] was 41.8 min. Further, in data set [9], the fraction unbound is 0.003.

What is called clearance is the rate of elimination divided by the concentration. High values mean efficient removal, low ones inefficient removal. By IC50 is commonly meant the point on the concentration scale where inhibition reaches its midpoint. As a reminder, the bioavailability is the share of a dose that reaches the circulation, judged against a reference dose that is usually intravenous. What is called half-life is how long it takes for the measured level to halve.
